Patent US11027155B2, “Method for prevention and treatment of diabetic kidney disease” (priority 2019, dated 2021)
“Also recorded” adds a separate entry of the source.

How the values were obtained:
hyaluronan = assay: Serum hyaluronan content in 4-MU fed diabetic nephropathy mice; type: in vivo; conditions: 4-MU fed animals, 5% 4-MU sodium salt in diet, after 3 weeks of treatment
Excerpt: The present disclosure describes a new use of HA synthesis inhibitors for the treatment of Diabetic Kidney Disease. To study the effects of HA inhibitors on the development of DKD, our experiments were done by providing the test drug (4-Methylumbelliferone, 4-MU) in the food to one of the best available murine models of diabetic nephropathy, the diabetic and moderately hypertensive endothelial nitric oxide synthase/leptin receptor deficient (eNOS−/−/db/db) mice (Mohan S., et al. Laboratory Investigation. 2008, vol. 88, p. 515-528; Betz B., at al. Nephron Exp Nephrol. 2014, vol. 126, p. 191-195). At 9 weeks old, the double homozygous mutant eNOS/db mice were separated in two similar groups regarding sex, body weight, non-fasting plasma glucose concentrations, and consanguinity. Experimental animals were fed at libitum identical artificial diets formulated by Envigo-Teklad, containing or not 5% of 4-MU sodium salt (Sigma, cat. no. M1508) until 19 weeks of age. Both diets provided 3.5 Kcal/g and contained by weight: 17.7% of protein, 53.7% of carbohydrate, and 7.2% of fat. Diets were kept sealed under vacuum at −20° C. protected from light. Every week, the old food was removed, and animals were provided fresh food pellets. […] We detected in 4-MU fed animals a reduction of serum hyaluronan content of about 30% after 3 weeks of treatment.

[1] = Body weight and appearance monitored weekly in eNOS/db mice; type: in vivo
Excerpt: The present disclosure describes a new use of HA synthesis inhibitors for the treatment of Diabetic Kidney Disease. To study the effects of HA inhibitors on the development of DKD, our experiments were done by providing the test drug (4-Methylumbelliferone, 4-MU) in the food to one of the best available murine models of diabetic nephropathy, the diabetic and moderately hypertensive endothelial nitric oxide synthase/leptin receptor deficient (eNOS−/−/db/db) mice (Mohan S., et al. Laboratory Investigation. 2008, vol. 88, p. 515-528; Betz B., at al. Nephron Exp Nephrol. 2014, vol. 126, p. 191-195).
(§1) At 9 weeks old, the double homozygous mutant eNOS/db mice were separated in two similar groups regarding sex, body weight, non-fasting plasma glucose concentrations, and consanguinity. Experimental animals were fed at libitum identical artificial diets formulated by Envigo-Teklad, containing or not 5% of 4-MU sodium salt (Sigma, cat. no. M1508) until 19 weeks of age. Both diets provided 3.5 Kcal/g and contained by weight: 17.7% of protein, 53.7% of carbohydrate, and 7.2% of fat. Diets were kept sealed under vacuum at −20° C. protected from light. Every week, the old food was removed, and animals were provided fresh food pellets.
The weight and appearance of the animals was monitored weekly.

plasma glucose = assay: Non-fasting plasma glucose (commercial kit EIAGLUC); type: in vivo, mice; conditions: 4-MU-treated vs control, end of the experiments (18-week-old)
Excerpt: as §1, with “-20°” for “−20°”, “pellets. Plasma glucose levels were measured using a commercial kit ([…], Invitrogen). […] This fact remarks an important difference between our invention and the use of 4-MU to treat autoimmune diabetes.” for “pellets.”

C-Reactive Protein = C-Reactive Protein immunoassay in serum; type: in vivo, mice; conditions: 4 weeks after being fed with the special diets
Excerpt: as §1, with “pellets. […] C—RP is considering the gold standard marker for inflammation and the lack of differences in this protein between our experimental mice points out that 4-MU is not affecting the development of DKD by crucially changing the inflammatory responses in our diabetic animals but for other mechanism of action.” for “pellets.”

eNOS−/−/db/db mice [2] = assay: Glomerular Filtration Rate by single bolus FITC-inulin in conscious mice; type: in vivo
Excerpt: The present disclosure describes a new use of HA synthesis inhibitors for the treatment of Diabetic Kidney Disease. To study the effects of HA inhibitors on the development of DKD, our experiments were done by providing the test drug (4-Methylumbelliferone, 4-MU) in the food to one of the best available murine models of diabetic nephropathy, the diabetic and moderately hypertensive endothelial nitric oxide synthase/leptin receptor deficient (eNOS−/−/db/db) mice (Mohan S., et al. Laboratory Investigation. 2008, vol. 88, p. 515-528; Betz B., at al. Nephron Exp Nephrol. 2014, vol. 126, p. 191-195). At 9 weeks old, the double homozygous mutant eNOS/db mice were separated in two similar groups regarding sex, body weight, non-fasting plasma glucose concentrations, and consanguinity. Experimental animals were fed at libitum identical artificial diets formulated by Envigo-Teklad, containing or not 5% of 4-MU sodium salt (Sigma, cat. no. M1508) until 19 weeks of age. Both diets provided 3.5 Kcal/g and contained by weight: 17.7% of protein, 53.7% of carbohydrate, and 7.2% of fat. […] In our experiments, GFR were determined before (week 8) and after 10 week of treatments (week 18) by a single bolus injection of fluorescein isothiocyanate-(FITC) labeled inulin in conscious mice (Rieg T. J Vis Exp. 2013, May 10: e50330, doi: 10.3791/50330). […]

eNOS−/−/db/db mice [3] = assay: Comparison of kidney morphology; type: in vivo; conditions: diabetic mice fed 4-MU diet vs control diet
Excerpt: The present disclosure describes a new use of HA synthesis inhibitors for the treatment of Diabetic Kidney Disease. To study the effects of HA inhibitors on the development of DKD, our experiments were done by providing the test drug (4-Methylumbelliferone, 4-MU) in the food to one of the best available murine models of diabetic nephropathy, the diabetic and moderately hypertensive endothelial nitric oxide synthase/leptin receptor deficient (eNOS−/−/db/db) mice (Mohan S., et al. Laboratory Investigation. 2008, vol. 88, p. 515-528; Betz B., at al. Nephron Exp Nephrol. 2014, vol. 126, p. 191-195). At 9 weeks old, the double homozygous mutant eNOS/db mice were separated in two similar groups regarding sex, body weight, non-fasting plasma glucose concentrations, and consanguinity. Experimental animals were fed at libitum identical artificial diets formulated by Envigo-Teklad, containing or not 5% of 4-MU sodium salt (Sigma, cat. no. M1508) until 19 weeks of age. Both diets provided 3.5 Kcal/g and contained by weight: 17.7% of protein, 53.7% of carbohydrate, and 7.2% of fat. Diets were kept sealed under vacuum at −20° C. protected from light. Every week, the old food was removed, and animals were provided fresh food pellets.

eNOS−/−/db/db mice [4] = assay: Kidney histopathology (H&E, PAS), semi-quantitative glomerular index; type: in vivo
Excerpt: The present disclosure describes a new use of HA synthesis inhibitors for the treatment of Diabetic Kidney Disease. To study the effects of HA inhibitors on the development of DKD, our experiments were done by providing the test drug (4-Methylumbelliferone, 4-MU) in the food to one of the best available murine models of diabetic nephropathy, the diabetic and moderately hypertensive endothelial nitric oxide synthase/leptin receptor deficient (eNOS−/−/db/db) mice (Mohan S., et al. Laboratory Investigation. 2008, vol. 88, p. 515-528; Betz B., at al. Nephron Exp Nephrol. 2014, vol. 126, p. 191-195). At 9 weeks old, the double homozygous mutant eNOS/db mice were separated in two similar groups regarding sex, body weight, non-fasting plasma glucose concentrations, and consanguinity. Experimental animals were fed at libitum identical artificial diets formulated by Envigo-Teklad, containing or not 5% of 4-MU sodium salt (Sigma, cat. no. M1508) until 19 weeks of age. Both diets provided 3.5 Kcal/g and contained by weight: 17.7% of protein, 53.7% of carbohydrate, and 7.2% of fat. Diets were kept sealed under vacuum at −20° C. protected from light. Every week, the old food was removed, and animals were provided fresh food pellets. Finally, for histopathology analysis kidneys were collected from 4-MU-treated and control mice at the end of the experiment. Organs were fixed in 10% NB formalin for 44 hours, embedded in paraffin, and 3 urn sections were stained with Hematoxylin and Eosin (H&E) or Periodic acid—Schiff (PAS), before being examined following Zhao H J et al. (Zhao H. J., et al. J Am Soc Nephrol. 2006, vol. 17, p. 2664-2669). A semi-quantitative index was used to evaluate the degree of glomerular mesangial expansion and sclerosis. 50 glomeruli on a single section (25 from each kidney) were scored from 0 to 4, where 0 represents no lesions and 1, 2, 3, and 4 represent mesangial matrix expansion or sclerosis involving less than or equal to 25, 26-50, 51-75, or >75% of the glomerular tuft area, respectively. End stage sclerotic glomeruli (glomerulosclerosis) were counted, as well as the number of glomeruli that contained nodules, and the percentage of affected glomeruli within the 50 analyzed. Histopathology staining and analyses were done by an independent service and the specialists were blind regarding the nature of the samples.

type 1 diabetes = conditions: after the onset of autoimmune insulitis, two mice models; cited from earlier work
[5] = cited from earlier work
[6] = tested on: LPS-Induced Lung Inflammation; conditions: mice; cited from earlier work
[7] = tested on: aortic smooth muscle cell (aSMC); conditions: in vitro; cited from earlier work
[8] = tested on: renal ischemia-reperfusion injury (IRI); conditions: cited from earlier work
HA synthesis = conditions: cited from earlier work
malignant tumor cells = conditions: in vitro and animal models of liver, breast, prostate, pancreatic, and renal carcinomas; cited from earlier work
diabetic patients = conditions: cited from earlier work
[9] = 4-MU-treated vs control, end of the experiment

For `Cc1cc(=O)oc2cc(O)ccc12` [4-MU, 4-Methylumbelliferone], the “reduction of serum hyaluronan content” value (hyaluronan) was “about 30%”, the “overall health and survival” value ([1]; DKD animals) was “impacted their overall health and survival” and the “body weight over time vs control diet” value ([1]; eNOS/db mice, 4-MU diet from 9 to 19 weeks of age) was “keep their body weight for a longer period; also recorded: kept their body weight longer”. For the same molecule, the “weight loss (final weight divided by maximum reached weight) vs control” value ([1]; final stages of the disease, end of the experiments) was “significant difference in weight loss; also recorded: control diet lost significantly more weight than the mice treated with 4-MU”, the “non-fasting plasma glucose levels” value (plasma glucose) was “No significant difference; also recorded: did not affect” and the “C-RP values in serum, treated vs untreated” value (C-Reactive Protein) was “No significant difference; also recorded: not significant differences”. For the same molecule, the “GFR, initial (week 7-8) vs final (week 18) in treated mice” value (eNOS−/−/db/db mice [2]; after 10 week of treatments) was “No significant difference; also recorded: kept their GFR values unchanged”, the “progression of DKD” value (eNOS−/−/db/db mice [2]; from GFR results) was “significantly delayed the progression of DKD” and the kidney morphology (eNOS−/−/db/db mice [3]) was “abnormalities are less pronounced; also recorded: less advanced degree of DKD”. For the same molecule, the “signs of nephritis and tubulitis” value (eNOS−/−/db/db mice [4]; 4-MU-treated mice, unlike control) was “did not found signs”, the glomerular injury index (eNOS−/−/db/db mice [4]; [9]) was “significant lower” and the nodular glomerulosclerosis (eNOS−/−/db/db mice [4]; [9]) was “lower”. For the same molecule, the “degree of kidney injuries (histopathology summary)” value (eNOS−/−/db/db mice [4]; FIG. 8) was “lower degree of kidney injuries”, the “progression to type 1 diabetes” value (type 1 diabetes) was “halted progression to type 1 diabetes” and the “metabolism in vivo to 4-MUG and 4-MUS” value [5] was “rapidly metabolized”. The “LPS-Induced Lung Inflammation” value [6] was “can suppress”, the aSMC apoptosis [7] was “induced apoptosis” and the “aSMC proliferation, migration” value [7] was “blocked”. For the same molecule, the “hyaluronan content in kidneys” value ([8]; 4-MU treatment) was “can reduce”, the “renal ischemia-reperfusion injury after kidney transplants” value ([8]; inhibition pre and post-operatively) was “protective” and the HA synthesis (HA synthesis) was “selectively inhibited”. For the same molecule, the “cytostatic / anti-metastatic effect on malignant tumor cells” value (malignant tumor cells) was “useful as cytostatic or in preventing metastasis”.

In the case of `Cc1ccc([C@@H]2O[C@H](CO)[C@@H](O)[C@H](O)[C@H]2O)cc1Cc1ccc(-c2ccc(F)cc2)s1` [canagliflozin], the “vascular and renal effects” value (diabetic patients) is listed as “vascular and renal protective effects”.
